These results are taken from patent US20120070411A1, “SUBSTITUTED NUCLEOTIDE ANALOGS” (Alios BioPharma, Inc., priority 2010, published 2012).

Where a chain is given by its changes, count along the chain named.

The test has as its system HCV genotype 1b HCV replicon harbored in Huh7 cells. As to the kind of experiment: Combination testing with compound A10 in HCV replicon (CalcuSyn CI and MacSynergy II synergy volume). In kind it is cell-based. To be noted: combination of compound A10 with the listed compound; MacSynergy II, Bliss independence; 25-100 synergistic, >100 strongly synergistic. The protocol: Two or more test compounds were tested in combination with each other using an HCV genotype 1b HCV replicon harbored in Huh7 cells with a stable luciferase (LUC) reporter. Cells were cultured under standard conditions in Dulbecco's modified Eagle's medium (DMEM; Mediatech Inc, Herndon, Va.) containing 10% heat-inactivated fetal bovine serum (FBS; Mediatech Inc, Herndon, Va.) 2 mM L-glutamine, and nonessential amino acids (JRH Biosciences). HCV replicon cells were plated in a 96-well plate at a density of 10^4 cells per well in DMEM with 10% FBS. […] The cells were incubated with no compound as a control, with the test compounds, or the combination of compounds for 72 h. The direct effects of the combination of the test compounds were examined using a luciferase (LUC) based reporter as determined by the Bright-Glo Luciferase Assay (Promega, Madison, Wis.). Dose-response curves were determined for individual compounds and fixed ratio combinations of two or more test compounds.
The effects of test compound combinations were evaluated by two separate methods. In the Loewe additivity model, the experimental replicon data was analyzed by using CalcuSyn (Biosoft, Ferguson, Mo.), a computer program based on the method of Chou and Talalay. The program uses the experimental data to calculate a combination index (CI) value for each experimental combination tested. A CI value of <1 indicates a synergistic effect, a CI value of 1 indicates an additive effect, and a CI value of >1 indicates an antagonistic effect.
The second method utilized for evaluating combination effects used a program called MacSynergy II. MacSynergy II software was kindly provided by Dr. M. Prichard (University of Michigan). The Prichard Model allows for a three-dimensional examination of drug interactions and a calculation of the synergy volume (units: μM^2%) generated from running the replicon assay using a checkerboard combination of two or more inhibitors. The volumes of synergy (positive volumes) or antagonism (negative volumes) represent the relative quantity of synergism or antagonism per change in the concentrations of the two drugs. Synergy and antagonism volumes are defined based on the Bliss independence model. In this model, synergy volumes of less than −25 indicate antagonistic interactions, volumes in the −25-25 range indicate additive behavior, volumes in the 25-100 range indicate synergistic behavior and volumes>100 indicate strong synergistic behavior.

For `CC(C)OC(=O)[C@H](C)NP(=O)(OC[C@H]1O[C@@H](n2ccc(=O)[nH]c2=O)[C@](C)(F)[C@@H]1O)Oc1ccccc1` (some centres unmarked) [PSI-7851], the “Synergy Volume” value was 14 μM^2%. Under `NC(=O)c1ncn([C@@H]2O[C@H](CO)[C@@H](O)[C@H]2O)n1` [Ribavirin, ribavirin] stands 0 μM^2%.

Take `COc1ccc2c(O[C@@H]3C[C@H]4C(=O)N[C@]5(C(=O)NS(=O)(=O)C6CC6)C[C@H]5/C=C\CCCCN(C)C(=O)[C@@H]4C3)cc(-c3nc(C(C)C)cs3)nc2c1C` [TMC-435]: the “Synergy Volume” value is listed as 104 μM^2%. As for `CC(C)(C)C#Cc1cc(N(C(=O)[C@H]2CC[C@H](C)CC2)[C@H]2CC[C@H](O)CC2)c(C(=O)O)s1` [VX-222], the figure is 52 μM^2%.

For the molecule `CCC[C@H](NC(=O)[C@@H]1[C@H]2CCC[C@H]2CN1C(=O)[C@@H](NC(=O)[C@@H](NC(=O)c1cnccn1)C1CCCCC1)C(C)(C)C)C(=O)C(=O)NC1CC1` [VX-950, Telaprevir], the “Synergy Volume” value is recorded as 34 μM^2%.

B1: IFN-Lambda 2 (protein, UniProt Q8IZJ0 26-200, looked up)
Interferon lambda-2: VPVARLHGALPDARGCHIAQFKSLSPQELQAFKRAKDALEESLLLKDCRCHSRLFPRTWDLRQLQVRERPMALEAELALTLKVLEATADTDPALVDVLDQPLHTLHHILSQFRACIQPQPTAGPRTRGRLHHWLYRLQEAPKKESPGCLEASVTFNLFRLLTRDLNCVASGDLCV
Take B1: the “Synergy Volume” value is reported as 31 μM^2%.

B2: IFN-Lambda 3 (protein, UniProt Q8IZI9 22-196, looked up)
Interferon lambda-3: B1 Interferon lambda-2 with H7R, R49K, H51R, M71V, V95G, F112L, Y135H
For the molecule B2, the “Synergy Volume” value is 33 μM^2%.

B3: IFN-Lambda 1 (protein, UniProt Q8IU54 20-200, looked up)
Interferon lambda-1: GPVPTSKPTTTGKGCHIGRFKSLSPQELASFKKARDALEESLKLKNWSCSSPVFPGNWDLRLLQVRERPVALEAELALTLKVLEAAAGPALEDVLDQPLHTLHHILSQLQACIQPQPTAGPRPRGRLHHWLHRLQEAPKKESAGCLEASVTFNLFRLLTRDLKYVADGNLCLRTSTHPEST
On to B3, for which the “Synergy Volume” value is recorded as 43 μM^2%.
